2 molecules from ChEMBL document CHEMBL5120839, “Design, synthesis and antibacterial activity of novel pleuromutilin derivatives with thieno[2,3-d]pyrimidine substitution” (Eur J Med Chem, 2022) can be followed below.

Data set [1] relates to Staphylococcus aureus. In words: Bactericidal activity against Staphylococcus aureus assessed as bacterial killing at 16 times MIC incubated for 12 hrs by time kill assay. It counts as functional.
In data set [2] the test system is Staphylococcus aureus. In words: Antibacterial activity against Staphylococcus aureus assessed as inhibition of bacterial growth incubated for 24 hrs by microbroth two-fold dilution method. The format is functional. A general note: Broth dilution looks for growth in wells or tubes with falling amounts of substance.
Data set [3] concerns Escherichia coli. The data set is described as follows: Antibacterial activity against Escherichia coli assessed as inhibition of bacterial growth incubated for 24 hrs by microbroth two-fold dilution method. It counts as functional.
The subject of data set [4] is Staphylococcus aureus. The data set is described as follows: Antibacterial activity against Staphylococcus aureus assessed as diameter of the inhibition circle at 1 mg/ml incubated for 48 hrs. The format is functional.
The subject of data set [5] is Streptococcus agalactiae. In words: Antibacterial activity against Streptococcus agalactiae assessed as bacterial growth by measuring optical density at 1 to 2 times MIC incubated for 12 hrs by real time growth curve analysis. The format is functional.
For a further data set, the system named is HEK-293T. In words: Cytotoxicity against human HEK293T cells assessed as cell viability incubated for 16 hrs by MTT assay. The format is toxicity, cell-based.
Data set [6] concerns Escherichia coli. In words: Antibacterial activity against Escherichia coli assessed as bacterial growth by measuring optical density at 1 to 2 times MIC incubated for 12 hrs by real time growth curve analysis. The format is functional.
In data set [7] the test system is Staphylococcus aureus. The data set is described as follows: Antibacterial activity against Staphylococcus aureus assessed as bacterial growth by measuring optical density incubated for 12 hrs by real time growth curve analysis. The format is functional.
In data set [8] the test system is Streptococcus agalactiae. The data set is described as follows: Antibacterial activity against Streptococcus agalactiae assessed as bacterial growth by measuring optical density at 0.5 times MIC incubated for 12 hrs by real time growth curve analysis. The format is functional.
The next data set relates to L02. In words: Cytotoxicity against human L02 cells assessed as cell viability incubated for 16 hrs by MTT assay. The format is toxicity, cell-based. As to conditions: l02, 16 h. On the technique in general: Formazan colour is commonly taken as a measure of viable cells.
Data set [9] concerns Staphylococcus aureus. In words: Bactericidal activity against Staphylococcus aureus assessed as bacterial killing at 32 times MIC incubated for 9 hrs by time kill assay. The format is functional.
Data set [10] concerns Staphylococcus aureus. In words: Bactericidal activity against Staphylococcus aureus assessed as bacterial killing at 1 to 4 times MIC incubated up to 24 hrs by time kill assay. It counts as functional.
The test system of data set [11] is Staphylococcus aureus. In words: Antibacterial activity against Methicillin-resistant Staphylococcus aureus BNCC 337371 assessed as inhibition of bacterial growth incubated for 24 hrs by microbroth two-fold dilution method. It counts as functional.
The subject of data set [12] is Staphylococcus aureus. The data set is described as follows: Bactericidal activity against Staphylococcus aureus assessed as bacterial killing at 32 times MIC incubated for 12 hrs by time kill assay. The format is functional.
Data set [13] relates to Escherichia coli. The data set is described as follows: Antibacterial activity against Escherichia coli assessed as bacterial growth by measuring optical density at 0.5 times MIC incubated for 12 hrs by real time growth curve analysis. The format is functional.
For data set [14], the system named is Streptococcus agalactiae. The data set is described as follows: Antibacterial activity against Streptococcus agalactiae assessed as inhibition of bacterial growth incubated for 24 hrs by microbroth two-fold dilution method. The format is functional.
The subject of the next data set is Shigella dysenteriae. The data set is described as follows: Antibacterial activity against Shigella dysenteriae assessed as inhibition of bacterial growth. It counts as functional.
The test system of data set [15] is Mycoplasmoides pneumoniae. The data set is described as follows: Antibacterial activity against Mycoplasma pneumoniae assessed as inhibition of bacterial growth. The format is functional.

≈ marks a conversion by molar mass, not a printed value.

As usually defined, the MIC is the least concentration at which growth counts as inhibited. Regarding `C=C[C@]1(C)C[C@@H](OC(=O)CSc2nc(N3CCN(CC)CC3)c3ccsc3n2)[C@]2(C)[C@H](C)CC[C@]3(CCC(=O)[C@H]32)[C@@H](C)[C@@H]1O`, the Activity was 99.9% in the data set on Staphylococcus aureus [1]; “Non-Toxic” in the data set with HEK-293T; “Non-Toxic” in the data set with L02; 99.9% in the data set on Staphylococcus aureus [9]; 99.9% in the data set with Staphylococcus aureus [10]; 99.9% with Staphylococcus aureus [12]. The MIC was 0.0019 µg/mL (≈ 0.00296 µM) in the data set on Staphylococcus aureus [2], 0.122 µg/mL (≈ 0.191 µM) in the data set with Escherichia coli [3], 0.0076 µg/mL (≈ 0.0119 µM) in the data set with Staphylococcus aureus [11] and 0.122 µg/mL (≈ 0.191 µM) in the data set with Streptococcus agalactiae [14]. Besides, in the data set on Staphylococcus aureus [4], the inhibition zone diameter was determined as 33.5 mm. The OD was 0.1 in the data set with Streptococcus agalactiae [5]; 0.1 in the data set on Escherichia coli [6]; below 0.2 in the data set with Staphylococcus aureus [7]; below 0.3 with Streptococcus agalactiae [8]; below 0.3 in the data set with Escherichia coli [13].

In the case of `C=C[C@]1(C)C[C@@H](OC(=O)CSC(C)(C)CNC(=O)[C@H](N)C(C)C)[C@]2(C)[C@H](C)CC[C@]3(CCC(=O)[C@H]32)[C@@H](C)[C@@H]1O` [VALNEMULIN], the MIC (in the data set with Shigella dysenteriae; in [15]) was 0.03 µg/mL (≈ 0.0531 µM) each time.
